Publication PMC4070292 (Molecular nutrition & food research, 2012)

Assays:
TNF-α = test: LPS-induced TNF-α release in macrophages; type: cell-based, murine; details: 100 ng/mL LPS
[1] = diet containing 0.2% pure apigenin for 7 days ref 47; cited from earlier work
NF-κB = NF-κB SEAP reporter gene assay in LPS-stimulated macrophages; type: cell-based, murine; details: 16 h; for decrease of NF-κB activity versus control / effect on LPS-induced NF-κB activity: LPS; for decrease of NF-κB activity versus control: 50 μM; for effect on LPS-induced NF-κB activity: doses as high as 100 μM; for effect on NF-κB activity without LPS: compound alone with diluent control; for effect on LPS-stimulated NF-κB activity: 100 ng/mL LPS, 25 μM
[2] = rats, 14 mg luteolin/kg body weight by gavage, after 1 h ref 48; cited from earlier work

SMILES | effect on LPS-induced TNF-α (TNF-α; 8 h, doses as low as 10 μM) | apigenin in mouse plasma [1] [nM] | decrease of NF-κB activity versus control (NF-κB) | effect on LPS-induced NF-κB activity (NF-κB) | effect on NF-κB activity without LPS (NF-κB) | effect on LPS-induced TNF-α (TNF-α; 10–25 μM, data not shown) | effect on LPS-induced TNF-α (TNF-α; 8 h, doses as high as 100 μM) | effect on LPS-stimulated NF-κB activity (NF-κB) | peak plasma concentration [2] [µM]
O=c1cc(-c2ccc(O)cc2)oc2cc(O)cc(O)c12 [apigenin] | significant reduction | 90 |  |  |  |  |  |  | 
O=c1cc(-c2ccc(O)cc2)oc2cc(O[C@@H]3O[C@H](CO)[C@@H](O)[C@H](O)[C@H]3O)cc(O)c12 [apigenin 7-O-glucoside] |  |  | not statistically significant | no effect | no effect | no effect | no effect |  | 
O=c1cc(-c2ccc(O)c(O)c2)oc2cc(O)cc(O)c12 [luteolin] | significant reduction |  |  |  | no effect |  |  | significantly reduced | 6.9
COc1cc(-c2cc(=O)c3c(O)cc(O)cc3o2)ccc1O [chrysoeriol, Chrysoeriol] | significant reduction |  |  |  | no effect |  |  | significantly reduced | 
O=c1cc(-c2ccc(O)c(O)c2)oc2cc(O[C@@H]3O[C@H](CO)[C@@H](O)[C@H](O)[C@H]3O)cc(O)c12 [luteolin 7-O-glucoside] |  |  | not statistically significant | no effect | no effect | no effect | no effect |  | 
